Results as given in ChEMBL document CHEMBL2057106, “Α-amino-β-fluorocyclopropanecarboxylic acids as a new tool for drug development: synthesis of glutamic acid analogs and agonist activity towards metabotropic glutamate receptor 4” (Bioorg Med Chem, 2012).
pEC50: −log10 of the molar value. Calls of active or inactive are those of the source. The calls are words filed in the database; no cut-off is given here.

Assays:
[1] = Agonist activity at mGlu4a receptor assessed as inhibition of forskolin-stimulated cAMP production; assay type: functional, Homo sapiens
[2] = molecular target: Metabotropic glutamate receptor 4 (Rattus norvegicus, UniProt P31423); experiment: Agonist activity at rat mGlu4 receptor expressed in HEK293 cells coexpressing Gq/Gi and EAAC1 assessed as intracellular calcium production measured every 1.5 secs for 60 secs by Fluo-4-AM based fluorometry; assay type: functional, cell-based
[3] = molecular target: Metabotropic glutamate receptor 4 (Rattus norvegicus) (UniProt P31423); experiment: Ratio of glutamate EC50 to compound EC50 for rat mGlu4 receptor expressed in HEK293 cells; assay type: cell-based
[4] = molecular target: Metabotropic glutamate receptor 4 (Rattus norvegicus) (UniProt P31423); experiment: Agonist activity at rat mGlu4 receptor expressed in HEK293 cells coexpressing Gq/Gi and EAAC1 assessed as intracellular calcium production at 100 uM measured every 1.5 secs for 60 secs by Fluo-4-AM based fluorometry; assay type: functional, cell-based
[5] = molecular target: Metabotropic glutamate receptor 4 (Rattus norvegicus) (UniProt P31423); experiment: Ratio of (E)APCPr EC50 to compound EC50 for rat mGlu4 receptor expressed in HEK293 cells; assay type: cell-based

Metabotropic glutamate receptor 4, sequence (P31423 whole entry): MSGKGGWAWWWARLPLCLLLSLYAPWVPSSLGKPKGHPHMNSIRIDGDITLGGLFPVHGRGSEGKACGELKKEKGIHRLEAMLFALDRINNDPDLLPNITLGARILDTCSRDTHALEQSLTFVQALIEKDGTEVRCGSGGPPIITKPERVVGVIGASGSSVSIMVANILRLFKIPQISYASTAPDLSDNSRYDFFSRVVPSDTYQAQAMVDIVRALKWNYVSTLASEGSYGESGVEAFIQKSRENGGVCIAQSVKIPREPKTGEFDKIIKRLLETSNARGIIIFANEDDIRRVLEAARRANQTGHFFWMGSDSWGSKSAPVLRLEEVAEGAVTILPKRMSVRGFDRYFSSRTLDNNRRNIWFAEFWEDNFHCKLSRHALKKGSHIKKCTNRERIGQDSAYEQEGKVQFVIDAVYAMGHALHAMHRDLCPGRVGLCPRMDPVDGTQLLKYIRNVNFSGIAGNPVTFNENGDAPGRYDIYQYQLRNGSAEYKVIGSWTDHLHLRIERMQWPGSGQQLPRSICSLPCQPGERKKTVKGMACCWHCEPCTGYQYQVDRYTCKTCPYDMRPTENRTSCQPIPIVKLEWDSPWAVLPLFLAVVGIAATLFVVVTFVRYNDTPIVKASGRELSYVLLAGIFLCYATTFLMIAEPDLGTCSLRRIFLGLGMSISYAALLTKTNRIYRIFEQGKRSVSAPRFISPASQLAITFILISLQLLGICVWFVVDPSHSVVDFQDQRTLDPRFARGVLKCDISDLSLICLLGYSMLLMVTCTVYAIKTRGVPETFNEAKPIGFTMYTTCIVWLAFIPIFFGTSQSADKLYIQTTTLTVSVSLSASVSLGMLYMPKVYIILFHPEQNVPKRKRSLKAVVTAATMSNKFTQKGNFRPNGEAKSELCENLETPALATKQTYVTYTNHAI
Metabotropic glutamate receptor 4 (Rattus norvegicus), sequence (P31423 whole entry): as above

| Structure (SMILES) | pEC50 [2] | further results |
| --- | --- | --- |
| N[C@@H](CCP(=O)(O)O)C(=O)O |  | pEC50 [1]: 6.37 |
| N[C@@]1(C(=O)O)C[C@@]1(F)C(O)P(=O)(O)O (mixture of isomers) | 2.85 |  |
| N[C@]1(C(=O)O)C[C@@]1(F)CP(=O)(O)O (racemic) | 6.47 | Ratio EC50 [3]: 10; Activity [4]: Active; Ratio EC50 [5]: 7 |
| N[C@]1(C(=O)O)C[C@@]1(F)CCC(=O)O (racemic) | 3.22 |  |
| N[C@]1(C(=O)O)C[C@@]1(F)CC(=O)O (racemic) | 3.33 |  |
| N[C@]1(C(=O)O)C[C@@]1(F)CS(=O)(=O)O (racemic) | 4.07 |  |
| N[C@]1(C(=O)O)C[C@H]1CP(=O)(O)O (racemic) |  | pEC50 [1]: 5.10 |
| N[C@@H](CCC(=O)O)C(=O)O [GLUTAMIC ACID] | 5.54 |  |
